This passage reports IC50 results from ChEMBL document CHEMBL1914337, “Synthesis and biological evaluation of 2-indolinone derivatives as potential antitumor agents” (Eur J Med Chem, 2011).

One assay deals with K562. Put plainly: cells. Particulars: Homo sapiens, K562, 48 h.
The next assay relates to PC-3. Put plainly: Cytotoxicity against human PC3 cells after 48 hrs by MTT assay. It is filed as functional, cell-based. Conditions: PC-3, 48 h. A general note: Tetrazolium assays rely on reduction of a dye to a coloured formazan, in cell work by metabolically active cells.
For a further assay, the system named is HepG2. Put plainly: cells. Conditions: Homo sapiens, HepG2, 48 h.
A short description of assay [1]: Cytotoxicity against human QSG7701 cells after 48 hrs by MTT assay. It is filed as cell-based. Conditions: QSG7701, 48 h.
The test system of the next assay is A549. Put plainly: cells. Conditions: Homo sapiens, A549, 48 h.
A further assay has as its system HCT-116. Kind of assay: cells. Conditions: Homo sapiens, HCT-116, 48 h.
The test system of a further assay is HL-60. Put plainly: cells. Conditions: Homo sapiens, HL-60, 48 h.

Description for A549: Cytotoxicity against human A549 cells after 48 hrs by MTT assay
Description for HCT-116: Cytotoxicity against human HCT116 cells after 48 hrs by MTT assay
Description for HL-60: Cytotoxicity against human HL60 cells after 48 hrs by MTT assay
Description for HepG2: Cytotoxicity against human HepG2 cells after 48 hrs by MTT assay
Description for K562: Cytotoxicity against human K562 cells after 48 hrs by MTT assay

In general, IC50 refers to the concentration that inhibits the measured activity by half. Read a high IC50 as weaker potency. Take `Cc1[nH]c(/C=C2\C(=O)Nc3ncccc32)c(C)c1C(=O)NCCN1CCCCC1`: the IC50 with K562 was 18 µM; in the assay on PC-3 it was 25.6 µM; with HepG2, 38.6 µM; in assay [1], > 50 µM; with A549, 25.4 µM; in the assay with HCT-116, 18.1 µM. For the same compound, in the assay on HL-60, the IC50 worked out at 30.2 µM.
For `O=C1Nc2ccc(F)cc2/C1=C/c1c[nH]c2cc(F)ccc12`, the IC50 is > 50 µM with K562; > 50 µM with PC-3; > 50 µM in the assay on HepG2; > 50 µM in assay [1]; > 50 µM in the assay on A549; 28 µM in the assay on HCT-116. This compound also displayed an IC50 in the assay with HL-60 of 43.1 µM.
For the compound `Cc1[nH]c(/C=C2\C(=O)Nc3ccncc32)c(C)c1C(=O)N1CCN(CCO)CC1`, the IC50 (in the assay on K562; in the assay with PC-3; in the assay on HepG2; in assay [1]; with A549; with HCT-116) was > 50 µM each time. Besides, the IC50 in the assay on HL-60 was > 50 µM.
For `Cc1[nH]c(/C=C2\C(=O)Nc3ncccc32)c(C)c1C(=O)NCCN(C)C`, the IC50 in the assay on K562 is 19.8 µM; in the assay on PC-3, 49.5 µM; in the assay with HepG2, 18.3 µM; in assay [1], > 50 µM; in the assay on A549, 21 µM; in the assay with HCT-116, 9.2 µM. This compound registered an IC50 in the assay on HL-60 of 48.8 µM.
Take `CCN(CC)CCNC(=O)c1ccc(/C=C2\C(=O)Nc3cccnc32)[nH]c1=O`: the IC50 with K562 is 25.3 µM; with PC-3, 30.3 µM; with HepG2, 12.6 µM; in assay [1], > 50 µM; in the assay with A549 it was 11.8 µM; in the assay with HCT-116, 8.2 µM. In the assay with HL-60, the IC50 is 32.9 µM.
As for `Cc1[nH]c(/C=C2\C(=O)Nc3cccnc32)c(C)c1C(=O)NCCN(C)C`, the IC50 with K562 was 24.1 µM; with PC-3 it was 47 µM; in the assay with HepG2, 20.2 µM; in assay [1], > 50 µM; with A549 it was 16.7 µM; in the assay with HCT-116 it was 12.4 µM. The compound further yielded an IC50 in the assay on HL-60 of 45.9 µM.
With `O=C1Nc2ccc(F)cc2/C1=C/c1c[nH]c2ccc(F)cc12`, the IC50 in the assay on K562 was > 50 µM; in the assay with PC-3, > 50 µM; with HepG2, > 50 µM; in assay [1], > 50 µM; in the assay with A549, > 50 µM; in the assay on HCT-116, 42.1 µM. In addition, the IC50 in the assay on HL-60 is > 50 µM.
As for `CCN(CC)CCNC(=O)c1c(C)[nH]c(/C=C2\C(=O)Nc3ccc(F)cc32)c1C` [SUNITINIB], the IC50 with K562 was 21.9 µM; with PC-3, 25.1 µM; in the assay on HepG2, 15.4 µM; in assay [1] it was > 50 µM; in the assay on A549, 18.5 µM; with HCT-116 it was 6.1 µM. In addition, the IC50 in the assay with HL-60 amounted to 15.5 µM.
Take `Cc1[nH]c(/C=C2\C(=O)Nc3ncccc32)c(C)c1C(=O)N1CCN(CCO)CC1`: the IC50 (with K562; with PC-3; in the assay on HepG2; in assay [1]; with A549; with HCT-116) was > 50 µM throughout. Besides, the IC50 in the assay with HL-60 is > 50 µM.
Consider `CN(C)CCNC(=O)c1ccc(/C=C2\C(=O)Nc3ccc(F)cc32)[nH]c1=O`, for which the IC50 in the assay on K562 is 19.3 µM; with PC-3, 25.2 µM; in the assay with HepG2, 17.1 µM; in assay [1], > 50 µM; with A549, 12.6 µM; with HCT-116 it was 5.3 µM. The compound further registered an IC50 in the assay on HL-60 of 24.7 µM.
On to `O=C1Nc2ccc(F)cc2/C1=C/c1ccc(C(=O)NCCN2CCOCC2)c(=O)[nH]1`, for which the IC50 with K562 was 45.1 µM; in the assay on PC-3, 35.6 µM; with HepG2, 35 µM; in assay [1], > 50 µM; in the assay on A549, 22 µM; with HCT-116, 12.8 µM. The IC50 with HL-60 amounted to 38.9 µM.
Take `CN(C)CCNC(=O)c1ccc(/C=C2\C(=O)Nc3ncccc32)[nH]c1=O`: the half-inhibitory concentration (IC50) with K562 was 21.3 µM; in the assay with PC-3, 26 µM; with HepG2, 27.3 µM; in assay [1], > 50 µM; with A549, 13.7 µM; in the assay on HCT-116 it was 4.3 µM. The midpoint of inhibition in the assay on HL-60, the IC50, lay at 34.3 µM.
